Experimental data: paper PMC10669542, “Ascorbate Peroxidase 2 (APX2) of Chlamydomonas Binds Copper and Modulates the Copper Insertion into Plastocyanin” (Antioxidants, 2023)

Biological target: T1, APX2 (recombinant His-tagged APX2) (Chlamydomonas reinhardtii, UniProt A0A2K3DPX4)
T1 construct: gene CHLRE_06g285150v5
T1 sequence (A0A2K3DPX4 97-337): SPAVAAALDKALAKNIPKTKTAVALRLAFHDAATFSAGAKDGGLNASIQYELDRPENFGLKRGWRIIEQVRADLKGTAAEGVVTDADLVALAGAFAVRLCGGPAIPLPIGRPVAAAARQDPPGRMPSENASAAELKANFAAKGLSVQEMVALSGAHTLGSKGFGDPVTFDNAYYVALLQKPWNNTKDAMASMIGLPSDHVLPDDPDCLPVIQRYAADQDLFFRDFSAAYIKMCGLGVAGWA
Experiment: peroxidase assay, tetraguaiacol formation at […] nm
Format: biochemical
Settings: electron donor, 10 mM; H2O2 varied 0-1 mM; 0.2 uM enzyme; 20 mM potassium phosphate pH 6.0

COc1ccccc1O [guaiacol]
peroxidase assay, tetraguaiacol formation at 470 nm: The enzyme demonstrated activity in the presence of guaiacol, a well-known electron donor for peroxidases
